Laboratory results published in patent US8134007B2, “Pyridine derivatives” (Pfizer Inc., priority 2007, dated 2012).

Tests used:
Assay type in all cases: cell-based
[1] = system: tetrodotoxin-sensitive voltage-gated sodium channels including NaV1.2, NaV1.3 and NaV1.7; assay: TTX-S Assay (VIPR, SHSY-5Y cell line, veratridine opener); conditions: read-out: TTX-S IC50, veratridine 50 μM opener, average of replicates
Human Nav1.8 = molecular target: T1, Human Nav1.8 (Homo sapiens, UniProt Q9Y5Y9); assay: VIPR Assay for Nav1.8 Compounds (FRET membrane potential, deltamethrin opener); conditions: VIPR FRET membrane potential assay, deltamethrin opener; average of replicates; read-out: Nav1.8 IC50
T1 construct: expressed in transfected cells; host or cells: HEK293

Human Nav1.5 = molecular target: T2, Human Nav1.5 (Homo sapiens, UniProt Q14524); assay: Nav1.5 Assay (VIPR, HEK293 cells); conditions: HEK293 cells expressing Human Nav1.5; average of replicates; read-out: Nav1.5 IC50
T2 construct: expressed in transfected cells; host or cells: HEK293
Protocol: The Nav1.5 assay is performed in HEK293 cells expressing Human Nav1.5 in the same way as the Nav1.8 assay.
Where replicate experiments were conducted resulting in multiple sets of data for a test compound, the data presented represent the average value from all replicate experiments.

T1 sequence (Q9Y5Y9 whole entry): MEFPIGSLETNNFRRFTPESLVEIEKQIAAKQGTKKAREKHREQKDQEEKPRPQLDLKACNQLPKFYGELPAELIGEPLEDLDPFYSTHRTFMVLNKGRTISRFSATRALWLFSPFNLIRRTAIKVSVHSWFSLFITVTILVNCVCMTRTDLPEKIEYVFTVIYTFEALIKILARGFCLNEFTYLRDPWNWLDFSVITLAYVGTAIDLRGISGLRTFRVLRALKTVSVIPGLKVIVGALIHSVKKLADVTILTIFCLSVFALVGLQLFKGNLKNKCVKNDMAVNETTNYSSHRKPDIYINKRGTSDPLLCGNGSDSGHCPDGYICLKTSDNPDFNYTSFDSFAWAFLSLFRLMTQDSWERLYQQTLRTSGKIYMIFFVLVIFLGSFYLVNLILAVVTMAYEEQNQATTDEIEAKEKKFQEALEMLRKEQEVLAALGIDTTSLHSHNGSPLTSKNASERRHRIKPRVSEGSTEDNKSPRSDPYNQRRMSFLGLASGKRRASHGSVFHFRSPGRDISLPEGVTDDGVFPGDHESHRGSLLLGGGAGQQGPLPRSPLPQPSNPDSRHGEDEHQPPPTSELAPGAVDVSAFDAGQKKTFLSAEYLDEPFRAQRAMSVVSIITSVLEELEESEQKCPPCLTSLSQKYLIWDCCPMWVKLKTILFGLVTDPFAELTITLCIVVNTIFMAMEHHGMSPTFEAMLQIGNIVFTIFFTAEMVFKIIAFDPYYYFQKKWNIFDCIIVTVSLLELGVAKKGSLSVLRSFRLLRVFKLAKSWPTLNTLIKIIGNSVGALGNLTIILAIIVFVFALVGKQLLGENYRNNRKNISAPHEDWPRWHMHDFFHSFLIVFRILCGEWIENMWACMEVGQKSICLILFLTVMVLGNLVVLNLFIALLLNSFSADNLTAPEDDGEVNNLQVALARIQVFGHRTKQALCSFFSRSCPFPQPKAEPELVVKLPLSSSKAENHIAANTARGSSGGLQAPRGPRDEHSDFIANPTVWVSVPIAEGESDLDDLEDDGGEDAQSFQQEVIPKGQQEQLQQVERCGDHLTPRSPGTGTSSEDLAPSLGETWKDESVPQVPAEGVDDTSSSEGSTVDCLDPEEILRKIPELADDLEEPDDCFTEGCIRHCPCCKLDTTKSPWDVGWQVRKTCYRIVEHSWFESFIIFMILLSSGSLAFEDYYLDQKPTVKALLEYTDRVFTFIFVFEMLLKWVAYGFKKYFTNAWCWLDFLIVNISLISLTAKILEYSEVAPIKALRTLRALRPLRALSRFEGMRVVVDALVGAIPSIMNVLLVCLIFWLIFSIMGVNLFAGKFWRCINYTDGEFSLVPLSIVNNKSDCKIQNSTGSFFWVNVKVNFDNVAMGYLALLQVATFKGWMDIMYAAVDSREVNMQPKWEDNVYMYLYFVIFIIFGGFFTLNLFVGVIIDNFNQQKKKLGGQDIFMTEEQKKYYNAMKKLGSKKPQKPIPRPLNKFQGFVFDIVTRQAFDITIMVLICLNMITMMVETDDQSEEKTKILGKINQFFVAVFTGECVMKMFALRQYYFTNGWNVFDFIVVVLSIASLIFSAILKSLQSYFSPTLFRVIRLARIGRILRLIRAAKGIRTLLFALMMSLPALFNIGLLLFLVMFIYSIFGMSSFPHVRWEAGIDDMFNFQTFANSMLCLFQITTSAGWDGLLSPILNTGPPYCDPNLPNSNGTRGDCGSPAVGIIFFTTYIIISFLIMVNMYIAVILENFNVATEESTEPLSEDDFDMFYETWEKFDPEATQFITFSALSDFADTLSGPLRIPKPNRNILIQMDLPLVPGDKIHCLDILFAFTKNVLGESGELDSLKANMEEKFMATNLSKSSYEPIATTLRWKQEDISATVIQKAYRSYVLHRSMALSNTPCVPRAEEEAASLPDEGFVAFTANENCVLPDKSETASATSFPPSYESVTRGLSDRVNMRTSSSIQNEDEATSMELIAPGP
T2 sequence (Q14524 whole entry): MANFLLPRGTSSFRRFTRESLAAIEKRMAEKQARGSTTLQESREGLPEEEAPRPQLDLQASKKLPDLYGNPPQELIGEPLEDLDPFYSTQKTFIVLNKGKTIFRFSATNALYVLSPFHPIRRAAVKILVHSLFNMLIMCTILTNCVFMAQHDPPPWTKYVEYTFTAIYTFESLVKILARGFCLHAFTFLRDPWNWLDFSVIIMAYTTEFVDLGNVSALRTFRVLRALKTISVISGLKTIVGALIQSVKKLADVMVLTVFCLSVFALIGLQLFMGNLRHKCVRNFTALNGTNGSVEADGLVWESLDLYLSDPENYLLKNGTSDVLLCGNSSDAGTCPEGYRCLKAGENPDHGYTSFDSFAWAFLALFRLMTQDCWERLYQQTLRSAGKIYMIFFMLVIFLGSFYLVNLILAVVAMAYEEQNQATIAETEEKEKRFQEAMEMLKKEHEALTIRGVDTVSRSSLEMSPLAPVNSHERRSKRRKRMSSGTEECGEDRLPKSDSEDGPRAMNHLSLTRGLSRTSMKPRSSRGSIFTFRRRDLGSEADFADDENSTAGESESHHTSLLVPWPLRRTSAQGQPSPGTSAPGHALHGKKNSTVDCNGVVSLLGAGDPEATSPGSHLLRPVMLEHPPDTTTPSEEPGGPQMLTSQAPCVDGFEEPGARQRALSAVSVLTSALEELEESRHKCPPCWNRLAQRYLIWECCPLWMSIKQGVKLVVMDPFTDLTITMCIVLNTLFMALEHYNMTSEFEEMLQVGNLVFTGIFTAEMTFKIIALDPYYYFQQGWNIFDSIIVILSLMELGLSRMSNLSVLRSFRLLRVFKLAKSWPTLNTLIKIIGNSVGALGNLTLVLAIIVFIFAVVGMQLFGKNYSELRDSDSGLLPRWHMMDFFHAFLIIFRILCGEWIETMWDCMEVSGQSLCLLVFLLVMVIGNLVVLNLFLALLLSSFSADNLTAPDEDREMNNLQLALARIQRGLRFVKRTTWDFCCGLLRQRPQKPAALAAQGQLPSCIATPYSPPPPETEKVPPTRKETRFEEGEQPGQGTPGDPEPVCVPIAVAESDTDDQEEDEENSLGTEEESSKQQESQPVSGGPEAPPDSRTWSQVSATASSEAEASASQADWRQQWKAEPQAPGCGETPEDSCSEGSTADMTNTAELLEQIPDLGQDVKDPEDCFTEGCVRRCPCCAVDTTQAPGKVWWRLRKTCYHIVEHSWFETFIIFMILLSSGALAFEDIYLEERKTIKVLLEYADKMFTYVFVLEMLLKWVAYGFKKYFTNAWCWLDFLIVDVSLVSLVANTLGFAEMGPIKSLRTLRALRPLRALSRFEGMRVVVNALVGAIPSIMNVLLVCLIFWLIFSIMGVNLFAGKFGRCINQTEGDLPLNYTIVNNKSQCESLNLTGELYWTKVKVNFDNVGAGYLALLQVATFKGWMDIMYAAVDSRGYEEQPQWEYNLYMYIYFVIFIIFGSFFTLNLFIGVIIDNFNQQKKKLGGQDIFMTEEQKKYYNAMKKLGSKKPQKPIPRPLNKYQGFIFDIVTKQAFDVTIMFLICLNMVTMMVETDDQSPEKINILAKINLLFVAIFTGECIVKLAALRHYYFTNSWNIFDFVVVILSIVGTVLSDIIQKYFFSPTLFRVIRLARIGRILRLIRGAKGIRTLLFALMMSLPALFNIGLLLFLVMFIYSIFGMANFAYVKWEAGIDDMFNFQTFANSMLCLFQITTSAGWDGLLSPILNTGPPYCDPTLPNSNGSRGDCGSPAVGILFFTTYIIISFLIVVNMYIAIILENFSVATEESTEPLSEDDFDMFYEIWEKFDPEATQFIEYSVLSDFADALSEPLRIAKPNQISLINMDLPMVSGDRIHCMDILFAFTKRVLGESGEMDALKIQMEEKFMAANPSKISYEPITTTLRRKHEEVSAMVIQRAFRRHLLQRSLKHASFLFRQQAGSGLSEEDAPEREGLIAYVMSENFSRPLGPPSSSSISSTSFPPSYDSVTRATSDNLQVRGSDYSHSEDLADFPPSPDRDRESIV

| Compound | IC50 [1] [µM] | IC50 (Human Nav1.8) [µM] | IC50 (Human Nav1.5) [µM] |
| --- | --- | --- | --- |
| Cn1nccc1C(=O)Nc1ccc(-c2cc(F)ccc2OC(F)(F)F)c(N)n1 [Example 116] | 26 | 2.3 | 28 |
| Cc1nocc1C(=O)Nc1ccc(-c2cc(F)ccc2O)c(N)n1 [Example 128] | > 32 | 15 | > 32 |
| Cc1nocc1C(=O)Nc1ccc(-c2ccc(F)cc2)c(N)n1 [Example 40, N-[6-Amino-5-(4-fluorophenyl)pyridin-2-yl]-3-methylisoxazole-4-carboxamide] | 30 | 20 | 31 |
| Cn1nccc1C(=O)Nc1ccc(-c2cc(Cl)ccc2Cl)c(N)n1 [Example 3, N-[6-Amino-5-(2,5-dichlorophenyl)pyridin-2-yl]-1-methyl-1H-pyrazole-5-carboxamide] | 11 | 0.9 | 15 |
| Cc1nonc1C(=O)Nc1ccc(-c2ccccc2OC(F)(F)F)c(N)n1 [Example 50, N-{6-Amino-5-[2-(trifluoromethoxy)phenyl]pyridin-2-yl}-4-methyl-1,2,5-oxadiazole-3-carboxamide] | 9.8 | 3.1 | 19 |
| Cc1nocc1C(=O)Nc1ccc(-c2cc(F)ccc2F)c(N)n1 [Example 34, N-[6-Amino-5-(2,5-difluorophenyl)pyridin-2-yl]-3-methylisoxazole-4-carboxamide] | 19 | 3.1 | 16 |
| COc1cc(Cl)c(Cl)c(-c2ccc(NC(=O)c3nonc3C)nc2N)c1 [Example 48, N-[6-Amino-5-(2,3-dichloro-5-methoxyphenyl)pyridin-2-yl]-4-methyl-1,2,5-oxadiazole-3-carboxamide] | 3.3 | 0.76 | 22 |
| Cn1nccc1C(=O)Nc1ccc(-c2cc(OC(F)(F)F)ccc2F)c(N)n1 [Example 17, N-{6-Amino-5-[2-fluoro-5-(trifluoromethoxy)phenyl]pyridin-2-yl}-1-methyl-1H-pyrazole-5-carboxamide] | 7.7 | 3.4 | 19 |
| Cc1nocc1C(=O)Nc1ccc(-c2ccccc2OC(F)(F)F)c(N)n1 [Example 43, N-{6-Amino-5-[2-(trifluoromethoxy)phenyl]pyridin-2-yl}-3-methylisoxazole-4-carboxamide] | 10 | 0.32 | 12 |
| COCc1nocc1C(=O)Nc1ccc(-c2cc(F)ccc2Cl)c(N)n1 [Example 90, N-[6-Amino-5-(2-chloro-5-fluorophenyl)pyridin-2-yl]-3-(methoxymethyl)isoxazole-4-carboxamide] | > 32 | 0.55 | > 32 |
| CCn1nccc1C(=O)Nc1ccc(-c2cc(OC)cc(Cl)c2Cl)c(N)n1 [Example 61, N-[6-Amino-5-(2,3-dichloro-5-methoxyphenyl)pyridin-2-yl]-1-ethyl-1H-pyrazole-5-carboxamide] | 9.7 | 1.3 | 9.7 |
| Nc1nc(NC(=O)c2cnon2)ccc1-c1cc(Cl)ccc1Cl [Example 71, N-[6-Amino-5-(2,5-dichlorophenyl)pyridin-2-yl]-1,2,5-oxadiazole-3-carboxamide] | > 32 | > 32 | > 32 |
| COc1ccc(Cl)c(-c2ccc(NC(=O)c3conc3C)nc2N)c1 [Example 24, N-[6-Amino-5-(2-chloro-5-methoxyphenyl)pyridin-2-yl]-3-methylisoxazole-4-carboxamide] | 11 | 0.44 | 8.5 |
| Cn1nccc1C(=O)Nc1ccc(-c2cc(F)ccc2C(F)(F)F)c(N)n1 [Example 12, N-{6-Amino-5-[5-fluoro-2-(trifluoromethyl)phenyl]pyridin-2-yl}-1-methyl-1H-pyrazole-5-carboxamide] | > 32 | 3 | > 32 |
| Cn1ccc(C(=O)Nc2ccc(-c3cc(Cl)cc(Cl)c3Cl)c(N)n2)n1 [Example 70, N-[6-Amino-5-(2,3,5-trichlorophenyl)pyridin-2-yl]-1-methyl-1H-pyrazole-3-carboxamide] | 14 | 11 | 28 |
| COc1cc(Cl)c(Cl)c(-c2ccc(NC(=O)c3ccnn3C)nc2N)c1 [Example 7, N-[6-Amino-5-(2,3-dichloro-5-methoxyphenyl)pyridin-2-yl]-1-methyl-1H-pyrazole-5-carboxamide] | 9.2 | 0.63 | 6.3 |
| Cn1nccc1C(=O)Nc1ccc(-c2ccc(F)cc2Cl)c(N)n1 [Example 10, N-[6-Amino-5-(2-chloro-4-fluorophenyl)pyridin-2-yl]-1-methyl-1H-pyrazole-5-carboxamide] | > 32 | 25 | > 32 |
| COCc1cc(C(=O)Nc2ccc(-c3ccccc3Cl)c(N)n2)on1 [Example 95] | 29 | > 32 | > 32 |
| N#Cc1ccccc1C(=O)Nc1ccc(-c2ccccc2OC(F)(F)F)c(N)n1 [Example 107, N-{6-Amino-5-[2-(trifluoromethoxy)phenyl]pyridin-2-yl}-2-cyanobenzamide] | 3.1 | 2.5 | 2.5 |
| Cn1nccc1C(=O)Nc1ccc(-c2ccc(OC(F)(F)F)cc2)c(N)n1 [Example 120] | 5.2 | 12 | 10 |
| Cc1oncc1C(=O)Nc1ccc(-c2ccccc2Cl)c(N)n1 [Example 20, N-[6-Amino-5-(2-chlorophenyl)pyridin-2-yl]-5-methylisoxazole-4-carboxamide] | 14 | 1 | 17 |
| Cc1n[nH]cc1C(=O)Nc1ccc(-c2ccccc2OC(F)(F)F)c(N)n1 [Example 108, N-{6-Amino-5-[2-(trifluoromethoxy)phenyl]pyridin-2-yl}-3-methyl-1H-pyrazole-4-carboxamide] | 27 | 26 | > 32 |
| COCc1cc(C(=O)Nc2ccc(-c3cc(F)ccc3Cl)c(N)n2)on1 [Example 96] | 12 | 5.9 | 7.1 |
| Cn1nccc1C(=O)Nc1ccc(-c2cccc(F)c2Cl)c(N)n1 [Example 13, N-[6-Amino-5-(2-chloro-3-fluorophenyl)pyridin-2-yl]-1-methyl-1H-pyrazole-5-carboxamide] | > 32 | 8.8 | > 32 |
| Cn1nncc1C(=O)Nc1ccc(-c2ccccc2OC(F)(F)F)c(N)n1 [Example 85, N-{6-Amino-5-[2-(trifluoromethoxy)phenyl]pyridin-2-yl}-1-methyl-1H-1,2,3-triazole-5-carboxamide] | 28 | 7 | 31 |
| N#Cc1cccc(C(=O)Nc2ccc(-c3ccccc3OC(F)(F)F)c(N)n2)c1 [Example 106, N-{6-Amino-5-[2-(trifluoromethoxy)phenyl]pyridin-2-yl}-3-cyanobenzamide] | 8.1 | 5.3 | 16 |
| Cn1nccc1C(=O)Nc1ccc(-c2ccccc2Cl)c(N)n1 [Example 1, N-[6-Amino-5-(2-chlorophenyl)pyridin-2-yl]-1-methyl-1H-pyrazole-5-carboxamide] | > 32 | 5.8 | 24 |
